Test results: patent US20210238138A1, “Method for improving nucleation of crystals from solution” (Université Libre de Bruxelles, priority 2018, published 2021)
Values after ≈ are worked out from the molar mass of the structure shown.

Assays:
[1] = Solubility temperature and spontaneous nucleation temperature of aspirin solution; type: physicochemical; settings: 200 mg/mL in 50/50 vol % ethanol/water
Excerpt: The transition time is defined as the time necessary to reach crystallization conditions in the used setup (i.e. time for a fluid particle flowing in the liquid to get from undersaturated conditions to nucleation conditions). Therefore, this time is at a given concentration dominated by the difference in temperature between the solubility temperature and the metastable zone width or MSZW. At temperatures below this MSZW the solute in solution starts to nucleate spontaneously. […] (both measured). The transition time is then defined as the time needed to overcome this 20° C. difference in temperature.

[2] = Cooling crystallisation of acetylsalicylic acid in ethanol/water in capillary tubing; type: physicochemical; settings: 200 mg/mL 50 vol % ethanol/water, residence time 5.3 s, initial 65° C., bath 10° C.
Method: Tubing length should also be adapted when no antisolvent is added to the molecule/solvent solution.
The crystallization temperature is controlled by a water bath containing about 5 L of water, temperature is monitored at all times by a thermocouple. This water is cooled by a 1 m long cupper serpentine plunged into the bath with cooling liquid flowing from and to a cryothermostat, the water bath itself is agitated with a magnetic bar stirrer. The internal volume of a 7 m long tubing of […] is about 22 mL. As this volume is 220 times smaller than the volume of the present water it is assumed that the water temperature remains within a 0.5° C. or smaller margin of the set temperature value.
This reduction in size has to be performed in order to increase the reigning Reynolds number inside the restriction at set flow rates and concentrations.
For example, in a series of tests, an identical total residence time inside the tubing of 5.3 s was respected. A solution of 200 mg/mL aspirin in 50 vol % ethanol/water was used; at different flow rates. This means that the total length of the tubing inside the water bath was varied according to the set flow rate in order to retain the 5.3 s residence time.

[3] = Maturing of acetylsalicylic acid crystals (growth treatment, early filtration); type: physicochemical; settings: 3 m tubing
[4] = Cooling crystallisation of acetylsalicylic acid in ethanol/water in capillary tubing; type: physicochemical
[5] = Solubility of Brivaracetam in IPAc; settings: IPAc (isopropyl acetate), organic solvent or mixture
[6] = test 45: 200 mg/mL ethanol/water 50/50 vol %, Tc 10° C., σ 6.7, 30 mL/min, no restrictions, Growth to equilibrium in tubing
[7] = test 46: 200 mg/mL ethanol/water 50/50 vol %, Tc 10° C., σ 6.7, 30 mL/min, no restrictions, filtration on 16 μm glass filter after 60 s
[8] = test 47: 200 mg/mL ethanol/water 50/50 vol %, Tc 10° C., σ 6.7, 30 mL/min, no restrictions, filtration on 16 μm glass filter after 90 s
[9] = test 48: 200 mg/mL ethanol/water 50/50 vol %, Tc 10° C., σ 6.7, 30 mL/min, no restrictions, Addition to saturated solution
[10] = 200 mg/mL 50 vol % ethanol/water, residence time 5.3 s, initial 65° C., bath 10° C., tubing ID 1000 μm, flow rate 20 mL/min, tubing length 2.5 m
[11] = test 40: 200 mg/mL ethanol/water 50/50 vol %, 3 m tubing, Tc 15° C., σ 4.5, 30 mL/min, restriction 0, average of 10 tests
[12] = test 41: 200 mg/mL ethanol/water 50/50 vol %, 3 m tubing, Tc 15° C., σ 4.5, 30 mL/min, restriction 1 of 500 μm ID, average of 10 tests
[13] = test 42: 200 mg/mL ethanol/water 50/50 vol %, 3 m tubing, Tc 15° C., σ 4.5, 30 mL/min, restriction 2 of 500 μm ID, average of 10 tests
[14] = test 43: 200 mg/mL ethanol/water 50/50 vol %, 3 m tubing, Tc 15° C., σ 4.5, 30 mL/min, restriction 1 of 250 μm ID, average of 10 tests
[15] = test 44: 200 mg/mL ethanol/water 50/50 vol %, 3 m tubing, Tc 15° C., σ 4.5, 30 mL/min, restriction 2 of 250 μm ID, average of 10 tests

CC(=O)Oc1ccccc1C(=O)O [Acetylsalicylic acid, acetylsalicylic acid]
Solubility temperature [1]: 40 °C
Temperature at which spontaneous nucleation starts [1]: 20 °C
Crystal length ([2]; tubing ID 750 μm, flow rate 20 mL/min, tubing length 4.2 m): 377 μm
Nucleation rate J ([2]; tubing ID 750 μm, flow rate 30 mL/min, tubing length 6.2 m): 170 000 mL^−1 · s−^1
Crystal length ([2]; tubing ID 1000 μm, flow rate 30 mL/min, tubing length 3.6 m): 495 μm
Crystal length ([2]; tubing ID 1000 μm, flow rate 40 mL/min, tubing length 4.7 m): 416 μm
Crystal length [3, 6]: 500 ± 230 μm
Crystal width [3, 6]: 69 ± 27 μm
Crystal length [3, 7]: 359 ± 190 μm
Crystal width [3, 7]: 66 ± 35 μm
Crystal length [3, 8]: 646 ± 391 μm
Crystal width [3, 8]: 38 ± 23 μm
Crystal length [3, 9]: 172 ± 66 μm
Crystal width [3, 9]: 38 ± 13 μm
Crystal length ([3]; test 50: 200 mg/mL ethanol/water 50/50 vol %, Tc 15° C., σ 4.5, 30 mL/min, restriction 2 of 250 μm ID, filtration At exit): 63 ± 36 μm
Sphere Equivalent Diameter ([3]; test 51: 200 mg/mL ethanol/water 50/50 vol %, Tc 15° C., σ 4.5, 30 mL/min, restriction 2 of 250 μm ID, filtration After 120 s, thickness set to ⅕ of width): 42 ± 11 μm
Nucleation rate J ([4]; 200 mg/mL 50 vol % ethanol/water, residence time 5.3 s, initial 65° C., bath 10° C., tubing ID 750 μm, flow rate 20 mL/min, tubing length 4.2 m): 50 000 mL^−1 · s−^1
Crystal length ([4]; 200 mg/mL 50 vol % ethanol/water, residence time 5.3 s, initial 65° C., bath 10° C., tubing ID 750 μm, flow rate 30 mL/min, tubing length 6.2 m): 285 μm
Crystal length [4, 10]: 1279 μm
Nucleation rate J [4, 10]: 1400 mL^−1 · s−^1
Nucleation rate J ([4]; 200 mg/mL 50 vol % ethanol/water, residence time 5.3 s, initial 65° C., bath 10° C., tubing ID 1000 μm, flow rate 30 mL/min, tubing length 3.6 m): 54 000 mL^−1 · s−^1
Nucleation rate J ([4]; 200 mg/mL 50 vol % ethanol/water, residence time 5.3 s, initial 65° C., bath 10° C., tubing ID 1000 μm, flow rate 40 mL/min, tubing length 4.7 m): 112 000 mL^−1 · s−^1
Crystal length ([4]; 200 mg/mL 50 vol % ethanol/water, residence time 5.3 s, initial 65° C., bath 10° C., tubing ID 1500 μm, flow rate 20 mL/min, tubing length 1.2 m): No crystallization observed
Crystal length ([4]; 200 mg/mL 50 vol % ethanol/water, residence time 5.3 s, initial 65° C., bath 10° C., tubing ID 1500 μm, flow rate 30 mL/min, tubing length 1.7 m): No crystallization observed
Crystal length ([4]; 200 mg/mL 50 vol % ethanol/water, residence time 5.3 s, initial 65° C., bath 10° C., tubing ID 1500 μm, flow rate 40 mL/min, tubing length 2.2 m): No crystallization observed
Crystal length ([4]; test 34: 300 mg/mL ethanol-water, Tc 15° C., σ 27, Q 30 mL/min, tubing length 7 m, diameter 500 μm, 4 restrictions 1 mm long, 500 μm): Tube blocked
Crystal length ([4]; test 35: 300 mg/mL ethanol-water, Tc 10° C., σ 27, Q 30 mL/min, tubing length 6 m, diameter 750 μm, 4 restrictions 1 mm long, 500 μm): Tube blocked
Crystal length ([4]; test 36: 300 mg/mL ethanol-water, Tc 10° C., σ 27, Q 30 mL/min, tubing length 5 m, diameter 500 μm, 4 restrictions 1 mm long, 500 μm): Tube blocked
Crystal length ([4]; test 37: 300 mg/mL ethanol-water, Tc 10° C., σ 27, Q 30 mL/min, tubing length 3 m, diameter 500 μm, 4 restrictions 1 mm long, 500 μm): 800 ± 68 μm
Crystal length ([4]; test 38: 300 mg/mL ethanol-water, Tc 10° C., σ 27, Q 30 mL/min, tubing length 3 m, diameter 500 μm, 4 restrictions 1 mm long, 500 μm): 820 ± 80 μm
Crystal length ([4]; test 39: 300 mg/mL ethanol-water, Tc 10° C., σ 27, Q 30 mL/min, tubing length 3 m, diameter 500 μm, 4 restrictions 1 mm long, 500 μm): 795 ± 73 μm
Crystal length [4, 11]: 1319 ± 167 μm
Nucleation rate [4, 11]: 2300 mL⁻¹ s⁻¹
Sphere Equivalent Diameter [4, 11]: 449 ± 74 μm
Crystal length [4, 12]: 1398 ± 100 μm
Nucleation rate [4, 12]: 1900 mL⁻¹ s⁻¹
Sphere Equivalent Diameter [4, 12]: 490 ± 85 μm
Crystal length [4, 13]: 1049 ± 179 μm
Nucleation rate [4, 13]: 3700 mL⁻¹ s⁻¹
Sphere Equivalent Diameter [4, 13]: 348 ± 104 μm
Crystal length [4, 14]: 962 ± 82 μm
Nucleation rate [4, 14]: 5300 mL⁻¹ s⁻¹
Sphere Equivalent Diameter [4, 14]: 328 ± 31 μm
Crystal length [4, 15]: 393 ± 35 μm
Nucleation rate [4, 15]: 130 000 mL^−1 · s^−1
Sphere Equivalent Diameter [4, 15]: 117 ± 20 μm
Crystal depth as fraction of the width ([4]; tests 43 and 44 (250 μm inner diameter restrictions), 200 mg/mL ethanol/water 50/50): about ⅕

CCC[C@@H]1CC(=O)N([C@@H](CC)C(N)=O)C1 [Brivaracetam]
solubility ([5]; 20 °C): 136 mg/mL (≈ 641 mM)
solubility ([5]; 45 °C): ~1100 mg/mL (≈ 5180 mM)
